ChEMBL document CHEMBL5614443, “Hybrids of 3-Hydroxypyridin-4(1H)-ones and Long-Chain 4-Aminoquinolines as Potent Biofilm Inhibitors of Pseudomonas aeruginosa Potentiate Tobramycin and Polymyxin B Activity” (J Med Chem, 2024)
Calls of active or inactive are those of the source. The rule behind the calls is not given here.

How the values were obtained:
Pseudomonas aeruginosa [1] = experiment: Antivirulence activity in Pseudomonas aeruginosa clinical isolate 1167 assessed as reduction in rhamnolipid production at 10 uM incubated for 24 hrs by absorbance based microtiter plate reader analysis; assay type: functional, organism-based
Pseudomonas aeruginosa [2] = experiment: Synergistic antibacterial activity against Pseudomonas aeruginosa PAO1 assessed as fold reduction in bacterial survival rate at 50 uM incubated for 24 hrs in presence of 1/2 MIC of […] by LB agar plate method relative to polymyxin B alone; assay type: functional
Pseudomonas aeruginosa [3] = experiment: Synergistic antibacterial activity against Pseudomonas aeruginosa clinical isolate 1121 assessed as reduction in bacterial viability at 10 to 50 uM incubated for 24 hrs in presence of 1/8 MIC of polymyxin B by LB agar plate method; assay type: functional, organism-based; details: dose 10-50 µM
Pseudomonas aeruginosa [4] = experiment: Antibiofilm activity against Pseudomonas aeruginosa overexpressing fpvA assessed as inhibition of biofilm formation at 20 uM incubated for 24 hrs by crystal violet staining based analysis relative to control; assay type: functional
Pseudomonas aeruginosa [5] = experiment: Antivirulence activity in Pseudomonas aeruginosa clinical isolate 1121 assessed as reduction in rhamnolipid production at 10 uM incubated for 24 hrs by absorbance based microtiter plate reader analysis; assay type: functional, organism-based
Pseudomonas aeruginosa [6] = experiment: Synergistic antibacterial activity against Pseudomonas aeruginosa PAO1 assessed as reduction in cell viability at 10 to 50 uM incubated for 24 hrs in the presence of 1/2 MIC of tobramycin by LB agar plate method; assay type: functional, organism-based; details: dose 10-50 µM
Pseudomonas aeruginosa [7] = experiment: Induction of Fe3+ chelating activity in Pseudomonas aeruginosa PAO1 assessed as increase in pyochelin production at 2.5 to 50 uM incubated for 24 hrs by fluorescence microplate reader; details: dose 2.5-50 µM
Pseudomonas aeruginosa [8] = experiment: Synergistic antibacterial activity against Pseudomonas aeruginosa clinical isolate 1167 assessed as reduction in bacterial viability at 10 to 50 uM incubated for 24 hrs in presence of 1/8 MIC of polymyxin B by LB agar plate method; assay type: functional, organism-based; details: dose 10-50 µM
Pseudomonas aeruginosa [9] = experiment: Antibacterial activity against Pseudomonas aeruginosa clinical isolate 1129 assessed as inhibition of bacterial growth incubated for 24 hrs by CLSI protocol based method; assay type: functional, organism-based
Pseudomonas aeruginosa [10] = experiment: Antibacterial activity against Pseudomonas aeruginosa clinical isolate 0808 assessed as inhibition of bacterial growth incubated for 24 hrs by CLSI protocol based method; assay type: functional, organism-based
Pseudomonas aeruginosa [11] = experiment: Antibacterial activity against Pseudomonas aeruginosa PAO1 assessed as bacterial survival rate at 10 to 50 uM incubated for 24 hrs by LB agar plate method relative to control; assay type: functional; details: dose 10-50 µM
[12] = Cytotoxicity against African green monkey Vero cells assessed as reduction in cell viability at 200 uM incubated for 24 hrs by MTT assay; assay type: toxicity, cell-based; details: chlorocebus sabaeus
[13] = Metal chelating activity assessed as Fe3+ chelation by measuring iron chelation constant by fluorescence competition assay
[14] = Inhibition of quorum sensing system in Pseudomonas aeruginosa PAO1 transfected with mini-ctx-lasB-lacZ reporter gene assessed as decrease in beta-galactosidase activity incubated for 6 hrs by Miller assay; details: dose 1.25-20 µM
Pseudomonas aeruginosa [15] = experiment: Antibacterial activity against Pseudomonas aeruginosa clinical isolate 0617 assessed as inhibition of bacterial growth incubated for 24 hrs by CLSI protocol based method; assay type: functional, organism-based
[16] = Toxicity in Caenorhabditis elegans assessed as effect on survival upto 200 uM incubated for 72 hrs by bright-field microscopic analysis
Pseudomonas aeruginosa [17] = experiment: Synergistic antibacterial activity against Pseudomonas aeruginosa PAO1 assessed as fold reduction in bacterial survival rate incubated for 24 hrs in presence of ceftazidime by LB agar plate method; assay type: functional
Pseudomonas aeruginosa [18] = experiment: Inhibition of motility in Pseudomonas aeruginosa PAO1 assessed as reduction in twitching movements at 50 uM incubated for 16 hrs by motility assay; assay type: functional, organism-based
Pseudomonas aeruginosa [19] = experiment: Antibacterial activity against Pseudomonas aeruginosa clinical isolate 1031 assessed as inhibition of bacterial growth incubated for 24 hrs by CLSI protocol based method; assay type: functional, organism-based
[20] = Inhibition of quorum sensing system in Pseudomonas aeruginosa PAO1 transfected with mini-ctx-pqsA-lacZ reporter gene assessed as decrease in beta-galactosidase activity incubated for 6 hrs by Miller assay; details: dose 1.25-20 µM
Pseudomonas aeruginosa [21] = experiment: Antibacterial activity against Pseudomonas aeruginosa clinical isolate 1074 assessed as inhibition of bacterial growth incubated for 24 hrs by CLSI protocol based method; assay type: functional, organism-based
Pseudomonas aeruginosa [22] = experiment: Synergistic antibacterial activity against Pseudomonas aeruginosa clinical isolate 0815 assessed as reduction in bacterial viability at 10 to 50 uM incubated for 24 hrs in presence of 1/4 MIC of tobramycin by LB agar plate method; assay type: functional, organism-based; details: dose 10-50 µM
Pseudomonas aeruginosa [23] = experiment: Antivirulence activity in Pseudomonas aeruginosa clinical isolate 0815 assessed as reduction in pyocyanin production at 10 uM incubated for 24 hrs by absorbance based analysis; assay type: functional, organism-based
Pseudomonas aeruginosa [24] = experiment: Synergistic antibacterial activity against Pseudomonas aeruginosa PAO1 assessed as bacterial survival rate at 50 uM incubated for 24 hrs in presence of 1/2 MIC of tobramycin by LB agar plate method relative to control; assay type: functional
Pseudomonas aeruginosa [25] = experiment: Synergistic antibacterial activity against Pseudomonas aeruginosa clinical isolate 1167 assessed as reduction in bacterial viability at 10 to 50 uM incubated for 24 hrs in presence of 1/8 MIC of tobramycin by LB agar plate method; assay type: functional, organism-based; details: dose 10-50 µM
Pseudomonas aeruginosa [26] = experiment: Antivirulence activity in Pseudomonas aeruginosa clinical isolate 1167 assessed as reduction in elastase production at 10 uM incubated for 24 hrs by elastin-congo red dye based absorbance assay; assay type: functional, organism-based
Pseudomonas aeruginosa [27] = experiment: Synergistic antibacterial activity against Pseudomonas aeruginosa PAO1 assessed as reduction in cell viability at 10 to 50 uM incubated for 24 hrs in the presence of 1/4 MIC of polymyxin B by LB agar plate method; assay type: functional, organism-based; details: dose 10-50 µM
Pseudomonas aeruginosa [28] = experiment: Antibacterial activity against Pseudomonas aeruginosa PAO1 infected in Caenorhabditis elegans assessed as worm survival at 10 uM by bright-field microscopic analysis (reference value: 24 hrs); assay type: functional
Pseudomonas aeruginosa [29] = experiment: Antibiofilm activity against Pseudomonas aeruginosa clinical isolate 1167 assessed as reduction in biofilm content at 10 uM incubated for 24 hrs by crystal violet staining based analysis; assay type: functional, organism-based
Pseudomonas aeruginosa [30] = experiment: Synergistic antibacterial activity against Pseudomonas aeruginosa PAO1 assessed as fold reduction in bacterial survival rate incubated for 24 hrs in presence of azithromycin by LB agar plate method; assay type: functional
Pseudomonas aeruginosa [31] = experiment: Synergistic antibacterial activity against Pseudomonas aeruginosa clinical isolate 1167 assessed as reduction in bacterial viability at 10 to 50 uM incubated for 24 hrs in presence of 1/2 MIC of tobramycin by LB agar plate method; assay type: functional, organism-based; details: dose 10-50 µM
Pseudomonas aeruginosa [32] = experiment: Inhibition of motility in Pseudomonas aeruginosa PAO1 assessed as reduction in swimming movements incubated for 16 hrs by motility assay; assay type: functional, organism-based; details: dose 1.25-50 µM
Pseudomonas aeruginosa [33] = experiment: Antibacterial activity against Pseudomonas aeruginosa 27853 assessed as inhibition of bacterial growth incubated for 24 hrs by CLSI protocol based method; assay type: functional, organism-based
Pseudomonas aeruginosa [34] = experiment: Antibacterial activity against Pseudomonas aeruginosa clinical isolate 0807 assessed as inhibition of bacterial growth incubated for 24 hrs by CLSI protocol based method; assay type: functional, organism-based
Pseudomonas aeruginosa [35] = experiment: Synergistic antibacterial activity against Pseudomonas aeruginosa clinical isolate 1121 assessed as reduction in bacterial viability at 10 to 50 uM incubated for 24 hrs in presence of 1/4 MIC of polymyxin B by LB agar plate method; assay type: functional, organism-based; details: dose 10-50 µM
Pseudomonas aeruginosa [36] = experiment: Antibacterial activity against Pseudomonas aeruginosa PAO1 infected in Caenorhabditis elegans assessed as worm survival rate at 10 uM measured after 72 hrs in presence of tobramycin at 1/2 MIC by bright field microscopic analysis relative to control; assay type: functional

For `Cc1cc(=O)c(O)c(C(=O)NCCCCCCCCNc2ccnc3cc(Cl)ccc23)n1C.Cl`, the Activity (Pseudomonas aeruginosa [1]) was “Active”, the “fold change (FC)” value (Pseudomonas aeruginosa [2]) was about 100 and the Activity (Pseudomonas aeruginosa [3]) was “Active”. For the same compound, the inhibition at 20 µM (Pseudomonas aeruginosa [4]) was about 30%, the Activity (Pseudomonas aeruginosa [5]) was “Active” and the Activity (Pseudomonas aeruginosa [6]) was “Active”. The Activity (Pseudomonas aeruginosa [7]) was “inactive”, the Activity (Pseudomonas aeruginosa [8]) was “Active” and the Activity (Pseudomonas aeruginosa [9]) was “inactive”. The Activity (Pseudomonas aeruginosa [10]) was “inactive”, the Survival (Pseudomonas aeruginosa [11]) was about 100% and the Activity [12] was “Toxic”. The pFe3+ [13] was 20.6, the inhibition [14] was “Dose-Dependent Effect” and the Activity (Pseudomonas aeruginosa [15]) was “inactive”. The Activity [16] was “Non-Toxic”, the “fold change (FC)” value (Pseudomonas aeruginosa [17]) was under 10 and the inhibition (Pseudomonas aeruginosa [18]) was “Active”. For the same compound, the Activity (Pseudomonas aeruginosa [19]) was “inactive”, the inhibition [20] was “Dose-Dependent Effect” and the Activity (Pseudomonas aeruginosa [21]) was “inactive”. For the same compound, the Activity (Pseudomonas aeruginosa [22]) was “Active”, the Activity (Pseudomonas aeruginosa [23]) was “Active” and the survival at 50 µM (Pseudomonas aeruginosa [24]) was under 0.2%. The Activity (Pseudomonas aeruginosa [25]) was “Active”, the Activity (Pseudomonas aeruginosa [26]) was “Active” and the Activity (Pseudomonas aeruginosa [27]) was “Active”. For the same compound, the Survival (Pseudomonas aeruginosa [28]) was 32 h, the Activity (Pseudomonas aeruginosa [29]) was “Active” and the “fold change (FC)” value (Pseudomonas aeruginosa [30]) was under 10. The Activity (Pseudomonas aeruginosa [31]) was “Active”, the inhibition (Pseudomonas aeruginosa [32]) was “Dose-Dependent Effect” and the Activity (Pseudomonas aeruginosa [33]) was “inactive”. For the same compound, the Activity (Pseudomonas aeruginosa [34]) was “inactive”, the Activity (Pseudomonas aeruginosa [35]) was “Active” and the survival at 10 µM (Pseudomonas aeruginosa [36]) was 28.4%.
